Assay results taken from US20100144854A1 (priority 2007, published 2010).

What was measured:
amyloidosis = experiment: Example 1: patient with amyloidosis treated with rhodamine 6G; assay type: in vivo, human; conditions: Patient V
Protocol: Patient V. Diagnosis: amyloidosis. The patient felt lethargic and “under the weather”. […] The first course of treatment with the preparation consisted of 15 drops of a 1% solution in a glass of water three times a day by mouth, at the evening meal in addition a microenema of 10 drops of a 1% solution in 30 ml of water, and at night a 1% suppository containing the preparation. […] By the third week after the start of treatment the patient's condition had improved. In the words of relatives, the patient was “feeling better”. […] Blood analyses against the treatment background were normal.

renal cell carcinoma = experiment: Example 2: patient with renal cell carcinoma and lung formations treated with rhodamine 6G; assay type: in vivo, human; conditions: Patient L, 43
Protocol: Three years previously the left kidney was removed and prophylactic chemotherapy was carried out to treat renal cell carcinoma. […] Severe dyspnea, diagnosis adynamia. Treatment was prescribed, including the use of a medicinal preparation having an anti-tumor action. […] After 4 weeks the dyspnea and pain had decreased. Blood analyses against the treatment background normalised over 3 months. A repeat course of treatment with the preparation was then prescribed, which was administered rectally in the form of a 1% suppository and also by inhalation for 6 months. Over the course of the treatment the tumor in the right kidney and the metastases in the lungs disappeared.

[1] = system: adenocarcinoma of the right ovary; experiment: Example 3: patient with ovarian adenocarcinoma treated with rhodamine 6G; assay type: in vivo, human; conditions: Patient T, 54
From the text: Patient T. Diagnosis: adenocarcinoma of the right ovary. Metastases in the liver. A hysterectomy had been carried out 4 years before. There was a recurrence of the cancer after a year. The patient complained of pain in the pelvis and difficulty in urination. […] The patient's condition was moderately severe; pale skin. […] The course of treatment lasted 3 months. During the treatment the tumor decreased in size to 1.2×0.9×0.3 cm. […] Blood analyses against the treatment background became normal over 2 months. A full course of treatment with the preparation was carried out over 6 months. During the course of the treatment the tumor in the region of the bladder and rectum disappeared.

[2] = system: Malignant glioblastoma of the left brain; experiment: Example 4: patient with recurrent brain glioblastoma treated with rhodamine 6G intravenously; assay type: in vivo, human
Protocol: Patient G. Diagnosis: Malignant glioblastoma of the left brain. Recurrence of cancer. Two years previously a tumor had been removed in connection with a brain glioblastoma. The patient complained of headaches, nausea and vomiting. […] Patient's condition moderately severe; pale skin. […] The procedure took 40 minutes. Subsequent procedures were carried out in exactly the same sequence twice a week. The course of treatment lasted 3 months. During the treatment the tumor reduced in size to 0.3×0.4 cm. After two infusions of the preparation the symptoms of nausea and pain had decreased. The preparation was administered over 6 months as a single dose once every 2 weeks.

[3] = system: Recurring cancer of the right ovary; experiment: Example 8: patient with recurring ovarian cancer treated with rhodamine 6G enema; assay type: in vivo, human; conditions: Patient T, 52; third day after start; enema 5 g per day
Protocol: In connection with the detection of carcinoma of the left ovary the patient underwent a hysterectomy.
After the operation the patient was given a 2-year course of chemotherapy. The patient subsequently complained of pain in the rectum and tenesmus.
Diagnosis: Recurring cancer of the right ovary.
In view of the ineffectiveness of continuing the chemotherapy, the patient was treated with the preparation in the form of an enema.

[4] = system: Melanoma of the left lower leg; experiment: Example 11: patient with melanoma treated with 5% rhodamine 6G ointment; assay type: in vivo, human; conditions: Patient Sh., 75
[5] = Tolerability on use in a wide range of dosages; assay type: in vivo; conditions: used in a wide range of dosages

For “9-(2-ethoxycarbonyl)phenyl)-3,6-bis(ethylamino)2,7-dimethylxanthyl chloride [rhodamine 6G]”, the “blood analyses against the treatment background” value (from here on “blood analyses”) (amyloidosis) was “normal”, the “patient's condition” value (amyloidosis; 73, first week, 1% solution oral, microenema, 1% suppository) was “basically no change” and the “patient's condition” value (amyloidosis; one year after treatment) was “significantly improved”. The “patient's condition” value (amyloidosis; third week after start of treatment) was “improved”, the “amyloid foci in the brain, CT scan” value (amyloidosis; three months after start of treatment) was “reduction of amyloid foci in the brain” and the dyspnea and pain (renal cell carcinoma; after 4 weeks, 12 drops 1% solution oral three times a day and microenema) was “decreased”. The body weight (renal cell carcinoma; after treatment) was “regained weight”, the “blood analyses” value (renal cell carcinoma; over 3 months) was “normalised” and the “tumor in the kidney and metastases in the lungs” value (renal cell carcinoma; over the course of treatment, before: mass 3.5×5.4×3.7 cm, four lung formations 2.0-2.3 cm) was “disappeared”. The body weight ([1]; after treatment) was “regained weight”, the “tumor in the region of the bladder and rectum” value ([1]; full course over 6 months) was “disappeared” and the “blood analyses” value ([1]; over 2 months) was “became normal”. The “stools and feeling of pain” value ([1]; second week after start) was “the stools became normal and the feeling of pain disappeared”, the “tumor on CT scan” value ([2]; after 9 months' treatment) was “no tumor could be detected” and the “symptoms of nausea and pain” value ([2]; after two infusions) was “decreased”. For the same substance, the “severity of the pain” value [3] was “decreased”, the “decrease of sizes of the tumors” value ([4]; 5% ointment, over 2 months, before 5×7×9 cm) was 70% and the “recurrence of the melanoma” value ([4]; over 3 years) was “no recurrence”. The “allergic reactions or other side effects” value [5] was “does not produce any allergic reactions or other side effects”.
